The source made the active and inactive calls.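 The calls were made as follows: active = parasite count per well reduced by over 3 SD from the mean, with host cell number above 80% of untreated; inactive = the rest.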

The subject of the test is L. donovani amastigotes in THP-1 macrophages, DAPI imaging, 72 h. The test is described as follows: antileishmanial activity in infected macrophages – imaging, THP-1 host macrophages, single concentration (AID 977614).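 Also: signal is the parasite per host cell ratio from DAPI stained kinetoplasts and nuclei.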
As usually defined, the AC50 is the concentration giving half of the maximal activity seen. As for `COCC(=O)N(C)C[C@H]1[C@@H](c2ccccc2)[C@H](CO)N1C(=O)Cc1ccncc1`, the AC50 was > 10 µM (inactive).

As for `O=C(CC(F)(F)F)N1C[C@@H]2[C@H](c3ccccc31)[C@H](CO)N2CC1CCOCC1`, the AC50 is > 10 µM (inactive).

As to `O=C(Nc1ccc(Cl)cc1)N1C[C@H]2[C@@H](c3ccccc31)[C@@H](CO)N2CC1CCCCC1`, the AC50 is > 10 µM (inactive).

`CN1[C@H](CO)[C@@H]2c3ccccc3N(C(=O)C3CCCCC3)C[C@@H]21`: the AC50 was > 10 µM (inactive).

Regarding `O=C(c1ccccn1)N1C[C@@H]2[C@H](c3ccccc31)[C@@H](CO)N2C(=O)C1CCCCC1`, the AC50 was > 10 µM (inactive).

Turning to `C/C=C/c1ccc([C@@H]2[C@H](CO)N[C@H]2CN(C(=O)c2ccccc2F)C(C)C)cc1`, the AC50 was > 10 µM (inactive).

Take `C[C@@H]1CN([C@H](C)CO)C(=O)CCCn2cc(nn2)CO[C@@H]1CN(C)C(=O)CCC(F)(F)F`: the AC50 was > 10 µM (inactive).

As to `CCCN1[C@H](CO)[C@H](c2ccc(C#CC(C)C)cc2)[C@@H]1CN(C)S(C)(=O)=O`, the AC50 was > 10 µM (inactive).

On to `C[C@@H]1CN([C@@H](C)CO)C(=O)CCCn2nncc2CO[C@H]1CN(C)S(=O)(=O)c1cn(C)cn1`, for which the AC50 is > 10 µM (inactive).

In the case of `CC(=O)N1[C@@H](CO)[C@H](c2ccccc2)[C@@H]1CNC(=O)CN1CCOCC1`, the AC50 is > 10 µM (inactive).

Regarding `C[C@H]1CN([C@@H](C)CO)C(=O)CCCn2nncc2CO[C@H]1CN(C)S(=O)(=O)c1ccc(Oc2ccccc2)nc1`, the AC50 was > 10 µM (inactive).

Regarding `O=C(c1ccc2c(c1)OCO2)N1C[C@@H]2[C@H](c3ccccc31)[C@H](CO)N2Cc1cccnc1`, the AC50 was > 10 µM (inactive).

Consider `CCN(C[C@@H]1[C@@H](c2ccccc2)[C@H](CO)N1C(C)=O)C(=O)NC1CCCC1`, for which the AC50 was > 10 µM (inactive).

Turning to `O=C(NC[C@@H]1[C@H](c2ccccc2)[C@@H](CO)N1Cc1cccnc1)c1ccccn1`, the AC50 is > 10 µM (inactive).

For the compound `CCN(C[C@H]1N[C@@H](CO)[C@@H]1c1ccccc1)C(=O)c1ccncc1`, the AC50 was > 10 µM (inactive).

On to `CCCC#Cc1ccc([C@H]2[C@@H](CO)N[C@@H]2CN(C(C)=O)C2CCCC2)cc1`, for which the AC50 was > 10 µM (inactive).

In the case of `CCN(C[C@H]1[C@H](c2ccccc2)[C@@H](CO)N1S(C)(=O)=O)C(=O)C1CCCC1`, the AC50 was > 10 µM (inactive).

With `CCC(=O)N1[C@H](CO)[C@H](c2ccccc2)[C@H]1CN(CC)C(=O)c1cccc(F)c1`, the AC50 was > 10 µM (inactive).

For `COc1ccc(NC(=O)N(C)C[C@@H]2OCc3cnnn3CCCC(=O)N([C@H](C)CO)C[C@H]2C)c(OC)c1`, the AC50 is > 10 µM (inactive).

`C[C@@H]1CN([C@H](C)CO)C(=O)CCCn2nncc2CO[C@H]1CN(C)C(=O)c1cc(-c2ccccc2)on1`: the AC50 was > 10 µM (inactive).

Consider `Cc1cccc(S(=O)(=O)N2C[C@H]3[C@@H](c4ccccc42)[C@H](CO)N3C(=O)c2ccccc2)c1`, for which the AC50 is > 10 µM (inactive).

With `COCC(=O)NC[C@H]1[C@H](c2ccccc2)[C@H](CO)N1C(=O)c1ccccc1`, the AC50 was > 10 µM (inactive).

In the case of `COc1ccc(NC(=O)N2C[C@H]3[C@@H](c4ccccc42)[C@@H](CO)N3Cc2ccccn2)cc1`, the AC50 is > 10 µM (inactive).

Consider `CCCNC(=O)N1C[C@H]2[C@@H](c3ccccc31)[C@H](CO)N2C(=O)CN1CCOCC1`, for which the AC50 is > 10 µM (inactive).

As to `CCN(C[C@H]1[C@H](c2ccccc2)[C@@H](CO)N1CC1CC1)C(=O)c1ccccn1`, the AC50 was > 10 µM (inactive).

In the case of `CN(C[C@@H]1[C@@H](c2ccccc2)[C@H](CO)N1CC1CC1)C(=O)c1ccc(F)cc1`, the AC50 was > 10 µM (inactive).

Consider `COc1ccccc1CN1[C@H](CO)[C@@H]2c3ccccc3N(C(=O)C3CCOCC3)C[C@@H]21`, for which the AC50 is > 10 µM (inactive).

As to `CCC(=O)N1C[C@H]2[C@@H](c3ccccc31)[C@@H](CO)N2Cc1ccc(F)cc1`, the AC50 is > 10 µM (inactive).

With `COCC(=O)N1C[C@@H]2[C@H](c3ccccc31)[C@H](CO)N2Cc1cc(F)ccc1F`, the AC50 was > 10 µM (inactive).

On to `C[C@H](CO)N1C[C@H](C)[C@@H](CN(C)C(=O)c2ccc(N3CCN(C)CC3)cc2)OCc2cnnn2CCCC1=O`, for which the AC50 is > 10 µM (inactive).

Turning to `C[C@H]1CN([C@@H](C)CO)C(=O)CCCn2cc(nn2)CO[C@H]1CN(C)Cc1ccccc1`, the AC50 is > 10 µM (inactive).

As for `O=C(Nc1ccc(F)cc1)N1C[C@@H]2[C@H](c3ccccc31)[C@@H](CO)N2Cc1ccccc1Cl`, the AC50 is > 10 µM (inactive).

On to `CN1C[C@H]2[C@@H](c3ccccc31)[C@H](CO)N2Cc1ccccc1Cl`, for which the AC50 is > 10 µM (inactive).

With `C/C=C/c1ccc([C@H]2[C@@H](CNC(=O)NC(C)C)N(C(=O)C3CC3)[C@H]2CO)cc1`, the AC50 was > 10 µM (inactive).

For the compound `CCN(C[C@@H]1N[C@@H](CO)[C@H]1c1ccccc1)C(=O)c1ccncc1`, the AC50 was > 10 µM (inactive).

Consider `Cc1cccc(S(=O)(=O)N2C[C@@H]3[C@H](c4ccccc42)[C@H](CO)N3C(=O)c2ccccc2)c1`, for which the AC50 is > 10 µM (inactive).

Take `O=C(Nc1ccc(Cl)cc1)N1C[C@H]2[C@@H](c3ccccc31)[C@H](CO)N2CC1CCCCC1`: the AC50 is > 10 µM (inactive).

Turning to `COCC(=O)N1[C@@H](CO)[C@@H]2c3ccccc3N(C)C[C@@H]21`, the AC50 is > 10 µM (inactive).

`COCC(=O)N1[C@H](CNC(=O)c2ccccn2)[C@@H](c2ccccc2)[C@@H]1CO`: the AC50 was > 10 µM (inactive).

As for `CC(=O)N(CC1CCC1)C[C@@H]1N[C@@H](CO)[C@H]1c1ccc(C2=CCCC2)cc1`, the AC50 is > 10 µM (inactive).

In the case of `C/C=C/c1ccc([C@@H]2[C@H](CO)N(C(C)=O)[C@H]2CN(C(C)=O)C2CCCC2)cc1`, the AC50 is > 10 µM (inactive).

`C[C@@H]1CN([C@@H](C)CO)C(=O)CCCn2nncc2CO[C@H]1CN(C)C(=O)Oc1cccc2ccccc12`: the AC50 was > 10 µM (inactive).

For the compound `C[C@H](CO)N1C[C@H](C)[C@@H](CN(C)C(=O)c2ccc(N3CCN(C)CC3)cc2)OCc2cn(nn2)CCCC1=O`, the AC50 was > 10 µM (inactive).

As to `O=C(NC[C@@H]1[C@H](c2ccccc2)[C@@H](CO)N1C(=O)Cc1ccncc1)C1CCC1`, the AC50 is > 10 µM (inactive).

Regarding `C[C@@H]1CN([C@H](C)CO)C(=O)CCCn2cc(nn2)CO[C@H]1CN(C)S(=O)(=O)c1cccc(C#N)c1`, the AC50 is > 10 µM (inactive).

On to `O=C(Cc1cccnc1)N1[C@@H](CO)[C@@H](c2ccccc2)[C@@H]1CNCC1CCC1`, for which the AC50 is > 10 µM (inactive).

`C[C@@H]1CN([C@H](C)CO)C(=O)CCCn2cc(nn2)CO[C@@H]1CN(C)C(=O)Nc1ccc2c(c1)OCO2`: the AC50 was > 10 µM (inactive).

Regarding `C[C@@H]1CN([C@@H](C)CO)C(=O)CCCn2cc(nn2)CO[C@@H]1CN(C)Cc1ccccc1`, the AC50 is > 10 µM (inactive).

With `O=S(=O)(c1ccccc1)N1C[C@H]2[C@@H](c3ccccc31)[C@@H](CO)N2Cc1ccccn1`, the AC50 is > 10 µM (inactive).

For the compound `COc1ccccc1CN1[C@@H]2CN(C(=O)c3cccnc3)c3ccccc3[C@@H]2[C@@H]1CO`, the AC50 is > 10 µM (inactive).

As for `CCN(C[C@H]1[C@H](c2ccccc2)[C@@H](CO)N1C(=O)COC)S(C)(=O)=O`, the AC50 was > 10 µM (inactive).

On to `CN1C[C@@H]2[C@H](c3ccccc31)[C@H](CO)N2Cc1ccccc1Cl`, for which the AC50 was > 10 µM (inactive).

As for `CC(C)N(C[C@@H]1[C@@H](c2ccccc2)[C@H](CO)N1S(C)(=O)=O)C(=O)CN(C)C`, the AC50 was > 10 µM (inactive).

For the compound `C[C@H]1CN([C@@H](C)CO)C(=O)CCCn2cc(nn2)CO[C@@H]1CN(C)S(=O)(=O)c1ccc(-n2cccn2)cc1`, the AC50 was > 10 µM (inactive).

For the compound `C[C@H]1CN([C@@H](C)CO)C(=O)CCCn2nncc2CO[C@H]1CN(C)S(=O)(=O)c1ccc2c(c1)OCCCO2`, the AC50 is > 10 µM (inactive).

On to `CCN(C[C@@H]1[C@@H](c2ccccc2)[C@@H](CO)N1C(=O)COC)S(C)(=O)=O`, for which the AC50 was > 10 µM (inactive).

For `C/C=C/c1ccc([C@H]2[C@@H](CO)N(c3nc(C)c(C)s3)[C@@H]2CNCC(C)C)cc1`, the AC50 is > 10 µM (inactive).

For `CC(=O)N1[C@H](CO)[C@H](c2ccccc2)[C@H]1CNC(=O)CN1CCOCC1`, the AC50 is > 10 µM (inactive).

Consider `Cc1noc(C)c1NC(=O)N(C)C[C@@H]1OCc2cn(nn2)CCCC(=O)N([C@H](C)CO)C[C@H]1C`, for which the AC50 was > 10 µM (inactive).

For the compound `C[C@@H]1CN([C@H](C)CO)C(=O)CCCn2cc(nn2)CO[C@H]1CN(C)C(=O)Nc1cccc(C(F)(F)F)c1`, the AC50 was > 10 µM (inactive).

Regarding `C[C@H]1CN([C@@H](C)CO)C(=O)CCCn2nncc2CO[C@@H]1CN(C)C(=O)c1ccc2ccn(C)c2c1`, the AC50 was > 10 µM (inactive).

`C[C@H](CO)N1C[C@H](C)[C@H](CN(C)C(=O)Nc2cccc(Oc3ccccn3)c2)OCc2cnnn2CCCC1=O`: the AC50 was > 10 µM (inactive).

`O=C(c1ccccn1)N1C[C@@H]2[C@H](c3ccccc31)[C@H](CO)N2C(=O)Nc1ccccc1Cl`: the AC50 is > 10 µM (inactive).

Turning to `CN(C[C@@H]1N[C@H](CO)[C@@H]1c1ccc(-c2cccc(F)c2)cc1)C(=O)CC1CC1`, the AC50 was > 10 µM (inactive).

For `CCC(=O)N1[C@H](CO)[C@@H](c2ccccc2)[C@@H]1CN(CC)C(=O)c1cccc(F)c1`, the AC50 was > 10 µM (inactive).

Take `COc1ccc(NC(=O)N(C)C[C@@H]2OCc3cnnn3CCCC(=O)N([C@H](C)CO)C[C@@H]2C)c(OC)c1`: the AC50 is > 10 µM (inactive).

For `CC(=O)N1[C@@H](CO)[C@@H](c2ccccc2)[C@@H]1CN(CC1CCC1)C(=O)CN(C)C`, the AC50 is > 10 µM (inactive).

As to `OC[C@H]1[C@H]2c3ccccc3NC[C@H]2N1Cc1ccccc1Cl`, the AC50 is > 10 µM (inactive).

For `CCCNC(=O)N1[C@H](CNC(=O)c2cccc(F)c2)[C@H](c2ccccc2)[C@@H]1CO`, the AC50 was > 10 µM (inactive).

For the compound `CNC[C@H]1OCc2cn(nn2)CCCC(=O)N([C@H](C)CO)C[C@H]1C`, the AC50 was > 10 µM (inactive).

The values are drawn from PubChem BioAssay AID977614 (Broad Institute, 2014).
